The text below walks through data of patent publication US5567738A, “Use of 2-(4-(4-chlorophenyl)cyclohexyl)-3-hydroxy-1,4-Naphthoquinone for the treatment of cancer” (Glaxo Wellcome Inc., priority 1992, dated 1996).

Holding throughout (assay type): cell-based
Experiment [1] deals with DLD-1 (Human colon adenocarcinoma). The experiment can be described thus: Proliferative assay against tumour cell line DLD-1 in vitro. The conditions noted are these: read-out: Activity (% Growth Inhibition). As to the method: (§1) Activity Against Tumour Cell Lines In Vitro The activity of the test compound was evaluated using proliferative assays against a number of different turnout cell lines in vitro.

The test system of experiment [2] is A549 (Human lung carcinoma). The experiment can be described thus: Proliferative assay against tumour cell line A549 in vitro. The conditions noted are these: read-out: Activity (% Growth Inhibition). As to the method:
as §1

Experiment [3] has as its system two cell lines derived from human fibrosarcoma cells. The experiment can be described thus: Activity against two cell lines derived from human fibrosarcoma cells in vitro. The conditions noted are these: both cell lines. The method, then: (§2) Activity Against Human Fibrosarcoma Cells In Vitro The activities of the test compound and of a soluble carbamate derivative thereof against two cell lines derived from human fibrosarcoma cells were measured.

Experiment [4] concerns HCT-116 (Human colon carcinoma). Nature of the experiment: Proliferative assay against tumour cell line HCT-116 in vitro. The conditions noted are these: read-out: Activity (% Growth Inhibition). As to the method:
as §1

The subject of experiment [5] is P3888D1 (Mouse Leukaemia). The experiment can be described thus: Proliferative assay against tumour cell line P3888D1 in vitro. The conditions noted are these: read-out: Activity (% Growth Inhibition). The method, then: as §1
The next experiment concerns HT1080SCC2. The experiment can be described thus: Activity against human fibrosarcoma cells in vitro, HT1080SCC2. The method, then: as §2
The subject of a further experiment is HT10801C. Nature of the experiment: Activity against human fibrosarcoma cells in vitro, HT10801C. As to the method: as §2
A further experiment has as its system tumour cell lines. Nature of the experiment: Activity against tumour cell lines in vitro, all cell lines tested (proliferative assays). The conditions noted are these: at 1001 μM concentration (so in the source). As to the method:
as §1

Experiment [6] deals with WiDr (Human colon adenocarcinoma). The experiment can be described thus: Proliferative assay against tumour cell line WiDr in vitro. The conditions noted are these: read-out: Activity (% Growth Inhibition). As to the method: as §1
Experiment [7] concerns carcinoma, adenocarcinoma and fibrosarcoma cells. The experiment can be described thus: Activity against tumour cells (general statement).

What is called inhibition is the drop in the measured response relative to a control, in per cent. One may read the IC50 as the concentration that gives 50% inhibition. High values mean weaker potency in that assay, low ones greater potency in that assay. Regarding `O=C1C(O)=C([C@H]2CC[C@H](c3ccc(Cl)cc3)CC2)C(=O)c2ccccc21` [Test Compound, 2-[trans-4-(4-chlorophenyl)cyclohexyl]-3-hydroxy-1,4-naphthoquinone], the inhibition at 100 µM in experiment [1] stood at 94.2%; in [2], 86.6%; in experiment [4], 93.8%; in experiment [5], 92.3%; in experiment [6] it was 79.4%. Also, the “activity against human fibrosarcoma cell lines” value in experiment [3] was “active”. In addition, the IC50 in the experiment with HT1080SCC2 stood at 11 µM; in the experiment with HT10801C, 15 µM. In addition, the “active against all the cell lines tested” value in the experiment with tumour cell lines is “active”.
For the compound `O=C1C(O)=C(C2CCC(c3ccc(Cl)cc3)CC2)C(=O)c2ccccc21` (stereo not shown) [compound of formula (II), 2-[4-(4-chlorophenyl)cyclohexyl]-3-hydroxy-1,4-naphthoquinone], the “activity against tumour cells” value in [7] is given as “exhibits activity against tumour cells”.
